Results: patent US10947253B2, “Fused polycyclic dimers” (Ankh Life Sciences Limited, priority 2019, dated 2021)

What was measured:
[1] = test system: MIA Paca-2; assay: MTT growth inhibition (in vitro cytotoxicity), MIA Paca-2; assay type: cell-based; conditions: Homo sapiens, average IC50
Procedure: (§1) The following Table sets forth the IC50 values of harmaline and quinoline analogs against 23 human cancer cell lines. Growth inhibition effects (in vitro cytotoxicity) on pancreatic, endometrial, breast, lung, ovarian, renal, cervical, lymphoma, and myeloma cancer cells were determined by MTT assays and represented by average IC50 values. In the Table, the results are given in terms of μM, and nd=not determined.

[2] = test system: ASPC-1; assay: MTT growth inhibition (in vitro cytotoxicity), ASPC-1; assay type: cell-based; conditions: Homo sapiens, ASPC1, average IC50
Procedure: as §1

[3] = test system: BxPC-3; assay: MTT growth inhibition (in vitro cytotoxicity), BxPC-3; assay type: cell-based; conditions: Homo sapiens, average IC50
Procedure: as §1

[4] = test system: AN3CA; assay: MTT growth inhibition (in vitro cytotoxicity), AN3CA; assay type: cell-based; conditions: Homo sapiens, AN3-CA, average IC50
Procedure: as §1

[5] = test system: HEC-1a; assay: MTT growth inhibition (in vitro cytotoxicity), HEC-1a; assay type: cell-based; conditions: Homo sapiens, average IC50
Procedure: as §1

[6] = test system: MDA-MB-231; assay: MTT growth inhibition (in vitro cytotoxicity), MDA-MB-231; assay type: cell-based; conditions: Homo sapiens, average IC50
Procedure: as §1

[7] = test system: MDA-MB-468; assay: MTT growth inhibition (in vitro cytotoxicity), MDA-MB-468; assay type: cell-based; conditions: Homo sapiens, average IC50
Procedure: as §1

[8] = test system: HCC70; assay: MTT growth inhibition (in vitro cytotoxicity), HCC70; assay type: cell-based; conditions: Homo sapiens, average IC50
Procedure: as §1

[9] = test system: H1975 (EGFR mut); assay: MTT growth inhibition (in vitro cytotoxicity), H1975 (EGFR mut); assay type: cell-based; conditions: Homo sapiens, NCI-H1975, average IC50
Procedure: as §1

[10] = test system: H1650(EGFR mut); assay: MTT growth inhibition (in vitro cytotoxicity), H1650(EGFR mut); assay type: cell-based; conditions: Homo sapiens, NCI-H1650, average IC50
Procedure: as §1

[11] = test system: A2780; assay: MTT growth inhibition (in vitro cytotoxicity), A2780; assay type: cell-based; conditions: Homo sapiens, average IC50
Procedure: as §1

[12] = test system: A2780CP; assay: MTT growth inhibition (in vitro cytotoxicity), A2780CP; assay type: cell-based; conditions: Homo sapiens, A2780C/P, average IC50
Procedure: as §1

[13] = test system: A498; assay: MTT growth inhibition (in vitro cytotoxicity), A498; assay type: cell-based; conditions: Homo sapiens, average IC50
Procedure: as §1

[14] = test system: SiHA; assay: MTT growth inhibition (in vitro cytotoxicity), SiHA; assay type: cell-based; conditions: Homo sapiens, average IC50
Procedure: as §1

[15] = test system: FaDu; assay: MTT growth inhibition (in vitro cytotoxicity), FaDu; assay type: cell-based; conditions: Homo sapiens, average IC50
Procedure: as §1

[16] = test system: DoHH-2; assay: MTT growth inhibition (in vitro cytotoxicity), DoHH-2; assay type: cell-based; conditions: Homo sapiens, average IC50
Procedure: as §1

[17] = test system: OCI-LY3; assay: MTT growth inhibition (in vitro cytotoxicity), OCI-LY3; assay type: cell-based; conditions: Homo sapiens, average IC50
Procedure: as §1

[18] = test system: JIM1; assay: MTT growth inhibition (in vitro cytotoxicity), JIM1; assay type: cell-based; conditions: Homo sapiens, average IC50
Procedure: as §1

[19] = test system: KMM-1; assay: MTT growth inhibition (in vitro cytotoxicity), KMM-1; assay type: cell-based; conditions: Homo sapiens, average IC50
Procedure: as §1

[20] = test system: KMS-34; assay: MTT growth inhibition (in vitro cytotoxicity), KMS-34; assay type: cell-based; conditions: Homo sapiens, average IC50
Procedure: as §1

[21] = test system: RPMI-8226; assay: MTT growth inhibition (in vitro cytotoxicity), RPMI-8226; assay type: cell-based; conditions: Homo sapiens, average IC50
Procedure: as §1

[22] = test system: L363; assay: MTT growth inhibition (in vitro cytotoxicity), L363; assay type: cell-based; conditions: Homo sapiens, L-363, average IC50
Procedure: as §1

[23] = test system: MOLP-8; assay: MTT growth inhibition (in vitro cytotoxicity), MOLP-8; assay type: cell-based; conditions: Homo sapiens, average IC50
Procedure: as §1

[24] = test system: human cancer cell lines; assay: Cancer cell growth inhibition, summary over cell lines; assay type: cell-based; conditions: cell lines not specified, read-out: cancer cell growth inhibition (IC50)
Procedure: as §1

[25] = Metabolic half-life; assay type: in vitro ADME; conditions: read-out: metabolic half-lives

SMILES | IC50 [1] | IC50 [2] | IC50 [3] | IC50 [4] | IC50 [5] | IC50 [6] | IC50 [7] | IC50 [8] | IC50 [9] | IC50 [10] | IC50 [11] | IC50 [12] | IC50 [13] | IC50 [14] | IC50 [15] | IC50 [16] | IC50 [17] | IC50 [18] | IC50 [19] | IC50 [20] | other results
COc1ccc2c3c([nH]c2c1)C(CC(CC1=NCCc2c1[nH]c1cc(OC)ccc21)c1ccc(O)c(OC)c1)=NCC3 [Compound 5, 4-(1,3-bis(7-methoxy-4,9-dihydro-3H-pyrido[3,4-b]indol-1-yl)propan-2-yl)-2-methoxy-phenol] | 2.87 µM | 6.75 µM | 2.11 µM | 2.5 µM | 5.05 µM | 2.52 µM | 2.76 µM | 2.38 µM | 6.12 µM | 2.78 µM | 5 µM | 3.76 µM | 3.56 µM | 4.88 µM | 3.87 µM | 1.83 µM | 4.54 µM | 3.17 µM | 3.48 µM | 4.72 µM | IC50 [21]: 3.19 µM; IC50 [22]: 2.69 µM; IC50 [23]: 3.37 µM; IC50 [24]: 4 to 7 µM; half-life [25]: 1.28 ± 0.0393 h
COc1ccc2[nH]c3c(c2c1)CCN=C3CCCC1=NCCc2c1[nH]c1ccc(OC)cc21 [Compound 7, 1,3-bis(6-methoxy-4,9-dihydro-3H-pyrido[3,4-b]indol-1-yl)propane] | 4.54 µM | 7.9 µM | 3.21 µM | 3.01 µM | 7.02 µM | 3.12 µM | 2.6 µM | 5.13 µM | 5.77 µM | 4.95 µM | 2.54 µM | 4.12 µM | 5.39 µM | 12.7 µM | 2.34 µM | 2.41 µM | 8.85 µM | 6.15 µM | 5.18 µM | 4.41 µM | IC50 [21]: 1.97 µM; IC50 [22]: 2.47 µM; IC50 [23]: 1.88 µM; IC50 [24]: 0.6 to 2 µM; half-life [25]: 2.6 ± 0.124 h
COc1ccc2[nH]c3c(c2c1)CCN=C3CC(C)(C)CC1=NCCc2c1[nH]c1ccc(OC)cc21 [Compound 8, 1,1′-(2,2-dimethylpropane-1,3-diyl)bis(6-methoxy-4,9-dihydro-3H-pyrido[3,4-b]indole)] | 1.22 µM | 2.07 µM | 0.95 µM | 1.96 µM | 2.22 µM | 1.5 µM | 1.9 µM | 1.3 µM | 2.08 µM | 1.78 µM | 1.38 µM | 2.23 µM | 1.71 µM | 2.89 µM | 0.98 µM | 2.21 µM | 2.59 µM | 2.59 µM | 1.49 µM | 1.7 µM | IC50 [21]: 0.81 µM; IC50 [22]: 1.21 µM; IC50 [23]: 0.67 µM; IC50 [24]: 0.6 to 2 µM; half-life [25]: 6.88 ± 1.94 h
